“And” between values parts separate entries of the source, which are not always exact repeats. Equal values may be shown once. Read-outs that look alike come from different tables or passages of the source.
Experiments:
VV = details: mouse, in vivo; cited from earlier work
[1] = both, cynomolgus monkey, in vivo; for AUCINF—obs / Cmax / CL / T1/2 / Tmax: iv
[2] = in vivo
vaccinia virus (VV) = details: in vitro, read-out: 50% effective concentration [EC50], inhibition of virus replication; cited from earlier work
[3] = cynomolgus monkey, in vivo
in vivo [4] = details: New Zealand White, rabbit, iv; for clearance: CL
in vivo [5] = details: for AUC(0-t) / Cmax / half-life / clearance: iv
[6] = both, cynomolgus monkey, in vivo, po
physchem = details: thermodynamic from solid

O=C(NN1C(=O)C2C3C=CC(C4CC34)C2C1=O)c1ccc(C(F)(F)F)cc1 (stereo not shown) [ST-246, 4-trifluoromethyl-N-(3,3a,4,4a,5,5a,6,6a-octahydro-1,3-dioxo-4,6-ethenocycloprop[f]isoindol-2(1H)-yl)-benzamide]
tail lesions (VV): significantly reduced
Cmax higher for 4 hour vs 6 hour infusions [1]: approximately 50%
exposure higher for 4 hour vs 6 hour infusions [1]: approximately 20%
terminal elimination half-life [1]: 9.1 h
AUCINF—obs ([1]; 1 mg/kg): 1.94 ± 0.46 µg·h/mL
Cmax ([1]; 1 mg/kg): 384 ± 112 ng/mL
AUCINF—obs ([1]; 3 mg/kg): 5.83 ± 0.87 µg·h/mL
Cmax ([1]; 3 mg/kg): 1050 ± 190 ng/mL
CL ([1]; 10 mg/kg): 7.15 ± 1.23 mL/min/kg
T1/2 ([1]; 10 mg/kg): 8.9 ± 2.5 h
AUCINF—obs ([1]; 15 mg/kg): 48.7 ± 7.5 µg·h/mL
Cmax ([1]; 15 mg/kg): 9080 ± 950 ng/mL
AUCINF—obs ([1]; 20 mg/kg): 47.9 ± 6.1 µg·h/mL
CL ([1]; 20 mg/kg): 7.22 ± 0.883 mL/min/kg
Cmax ([1]; 20 mg/kg): 7480 ± 400 ng/mL
Tmax ([1]; 20 mg/kg): 6 h
AUCINF—obs ([1]; 30 mg/kg): 87.2 ± 14.6 µg·h/mL
CL ([1]; 30 mg/kg): 6.03 ± 1.02 mL/min/kg
Cmax ([1]; 30 mg/kg): 13900 ± 1300 ng/mL
T1/2 ([1]; 30 mg/kg): 6.9 ± 0.8 h
Tmax ([1]; 30 mg/kg): 6 h
time to recovery ([2]; female, CD-1, mouse, iv, 75 mg/kg): 2 to 3 h
tolerability ([2]; mouse): well-tolerated
toxicity after bolus IV injection ([2]; mouse, iv, 34 mg/kg): some dose-related toxicity and mortality
clinical signs ([2]; mouse, iv, 75 mg/kg): unsteady gait
clinical signs ([2]; mouse, iv, 100 mg/kg): clinical signs of labored breathing and lethargy
EC50 (vaccinia virus (VV)): ≤ 70 nM
Solubility of ST-246 (4 ° C.): 5.47 and 6.05
Solubility of ST-246 (25 ° C.): 9.21 and 10.59
Solubility of ST-246 (40 ° C.): 12.99 and 12.23
Solubility of ST-246 (60 ° C.): 17.41 and 16.21
onset of tremors after end of infusion ([3]; both, 30 mg/kg): ≤ 13 min
resolution of tremors after end of infusion ([3]; both, 30 mg/kg): approximately 2 hours
clinical signs [3]: no clinical signs were observed
clinical signs ([3]; 20 mg/kg): Tremors were not observed
AUC(0-t) (in vivo [4]; 1 mg/kg, AUC0-24 hr): 1.43 ± 0.4 µg·h/mL
clearance (in vivo [4]; 1 mg/kg): 27.7 mL/min/kg
Cmax (in vivo [4]; 1 mg/kg, Cmax): 1670 ± 2270 ng/mL
half-life (in vivo [4]; 1 mg/kg, T1/2): 0.9 ± 0.2 h
AUC(0-t) (in vivo [4]; both, 3 mg/kg, AUC0-24): 2.38 µg·h/mL
AUC(0-t) (in vivo [4]; both, 3 mg/kg, AUC0-24 hr): 2.38 ± 0.93 µg·h/mL
clearance (in vivo [4]; both, 3 mg/kg): 22.3 mL/min/kg
Cmax (in vivo [4]; both, 3 mg/kg, Cmax): 3030 ± 370 ng/mL
Cmax (in vivo [4]; both, 3 mg/kg, mean Cmax): 5790 ng/mL
AUC(0-t) (in vivo [4]; both, 30 mg/kg, AUC0-24 hr): 13.3 ± 0.7 µg·h/mL
clearance (in vivo [4]; both, 30 mg/kg): 37.1 mL/min/kg
Cmax (in vivo [4]; both, 30 mg/kg, Cmax): 38500 ± 3700 ng/mL
half-life (in vivo [4]; both, 30 mg/kg, T1/2): 12.2 ± 5.8 h
AUC(0-t) (in vivo [4]; both, 60 mg/kg, AUC0-24 hr): 61.8 ± 8.7 µg·h/mL
clearance (in vivo [4]; both, 60 mg/kg): 16.4 mL/min/kg
Cmax (in vivo [4]; both, 60 mg/kg, Cmax): 94100 ± 11100 ng/mL
half-life (in vivo [4]; both, 60 mg/kg, T1/2): 5.2 ± 0.8 h
Cmax (in vivo [4]; both, 60 mg/kg, mean Cmax): 94100 ng/mL
half-life (in vivo [4]; both, elimination half-lives): 1 to 12.2 h
AUC(0-t) (in vivo [4]; female, 1 mg/kg, AUC0-24): 1.15 µg·h/mL
Cmax (in vivo [4]; female, 1 mg/kg, Cmax): 679 ng/mL
half-life (in vivo [4]; female, 1 mg/kg, T1/2): 0.69 h
AUC(0-t) (in vivo [4]; female, 3 mg/kg, AUC0-24): 3.21 µg·h/mL
Cmax (in vivo [4]; female, 3 mg/kg, Cmax): 3340 ng/mL
AUC(0-t) (in vivo [4]; female, 30 mg/kg, AUC0-24): 14.9 µg·h/mL
Cmax (in vivo [4]; female, 30 mg/kg, Cmax): 37000 ng/mL
half-life (in vivo [4]; female, 30 mg/kg, T1/2): 16.3 h
AUC(0-t) (in vivo [4]; female, 60 mg/kg, AUC0-24): 60.1 µg·h/mL
Cmax (in vivo [4]; female, 60 mg/kg, Cmax): 88200 ng/mL
half-life (in vivo [4]; female, 60 mg/kg, T1/2): 4.6 h
AUC(0-t) (in vivo [4]; male, 1 mg/kg, AUC0-24): 1.71 µg·h/mL
Cmax (in vivo [4]; male, 1 mg/kg, Cmax): 769 ng/mL
half-life (in vivo [4]; male, 1 mg/kg, T1/2): 1.1 h
AUC(0-t) (in vivo [4]; male, 3 mg/kg, AUC0-24): 1.87 µg·h/mL
half-life (in vivo [4]; male, 3 mg/kg, T1/2): 3.2 h
AUC(0-t) (in vivo [4]; male, 30 mg/kg, AUC0-24): 16.2 µg·h/mL
Cmax (in vivo [4]; male, 30 mg/kg, Cmax): 40000 ng/mL
half-life (in vivo [4]; male, 30 mg/kg, T1/2): 8.1 h
AUC(0-t) (in vivo [4]; male, 60 mg/kg, AUC0-24): 72.3 µg·h/mL
Cmax (in vivo [4]; male, 60 mg/kg, Cmax): 99800 ng/mL
half-life (in vivo [4]; male, 60 mg/kg, T1/2): 5.7 h
bioavailability (in vivo [5]; female, BALB/c (oral), CD-1 (IV), mouse, 30 mg/kg): ~41%
AUC(0-t) (in vivo [5]; female, BALB/c, mouse, 2.3 mg/kg, AUC0-24): 87.8 µg·h/mL
Cmax (in vivo [5]; female, BALB/c, mouse, 2.3 mg/kg, Cmax): 22400 ng/mL
AUC(0-t) (in vivo [5]; female, BALB/c, mouse, 3 mg/kg, AUC0-24): 100 µg·h/mL
Cmax (in vivo [5]; female, BALB/c, mouse, 3 mg/kg, Cmax): 78400 ng/mL
AUC(0-t) (in vivo [5]; female, BALB/c, mouse, 7.6 mg/kg, AUC0-24): 218 µg·h/mL
Cmax (in vivo [5]; female, BALB/c, mouse, 7.6 mg/kg, Cmax): 37600 ng/mL
AUC(0-t) (in vivo [5]; female, BALB/c, mouse, 30 mg/kg, AUC0-24): 300 µg·h/mL
Cmax (in vivo [5]; female, BALB/c, mouse, 30 mg/kg, Cmax): 149000 ng/mL
AUC(0-t) (in vivo [5]; female, BALB/c, mouse, 34.3 mg/kg, AUC0-24): 873 µg·h/mL
Cmax (in vivo [5]; female, BALB/c, mouse, 34.3 mg/kg, Cmax): 162000 ng/mL
half-life (in vivo [5]; female, CD-1, mouse): 2.5 to 4.5 h
clearance (in vivo [5]; female, CD-1, mouse, 3 mg/kg): 0.717 mL/min/kg
half-life (in vivo [5]; female, CD-1, mouse, 3 mg/kg): 4.5 h
AUC(0-t) (in vivo [5]; female, CD-1, mouse, 3 mg/kg, AUC0-24): 67.9 µg·h/mL
AUC(0-t) (in vivo [5]; female, CD-1, mouse, 3 mg/kg, AUC0-24 hr): 68 µg·h/mL
Cmax (in vivo [5]; female, CD-1, mouse, 3 mg/kg, Cmax): 16700 ng/mL
clearance (in vivo [5]; female, CD-1, mouse, 10 mg/kg): 0.417 mL/min/kg
half-life (in vivo [5]; female, CD-1, mouse, 10 mg/kg): 2.8 h
AUC(0-t) (in vivo [5]; female, CD-1, mouse, 10 mg/kg, AUC0-24): 408 µg·h/mL
AUC(0-t) (in vivo [5]; female, CD-1, mouse, 10 mg/kg, AUC0-24 hr): 408 µg·h/mL
Cmax (in vivo [5]; female, CD-1, mouse, 10 mg/kg, Cmax): 63500 ng/mL
clearance (in vivo [5]; female, CD-1, mouse, 30 mg/kg): 0.7 mL/min/kg
half-life (in vivo [5]; female, CD-1, mouse, 30 mg/kg): 2.5 h
AUC(0-t) (in vivo [5]; female, CD-1, mouse, 30 mg/kg, AUC0-24): 709 µg·h/mL
AUC(0-t) (in vivo [5]; female, CD-1, mouse, 30 mg/kg, AUC0-24 hr): 709 µg·h/mL
Cmax (in vivo [5]; female, CD-1, mouse, 30 mg/kg, Cmax): 127000 ng/mL
clearance (in vivo [5]; female, CD-1, mouse, 75 mg/kg): 1 mL/min/kg
half-life (in vivo [5]; female, CD-1, mouse, 75 mg/kg): 2.8 h
AUC(0-t) (in vivo [5]; female, CD-1, mouse, 75 mg/kg, AUC0-24): 1250 µg·h/mL
AUC(0-t) (in vivo [5]; female, CD-1, mouse, 75 mg/kg, AUC0-24 hr): 1250 µg·h/mL
Cmax (in vivo [5]; female, CD-1, mouse, 75 mg/kg, Cmax): 238000 ng/mL
Cmax (in vivo [5]; female, CD-1, mouse, 75 mg/kg, mean Cmax): 238000 ng/mL
Cmax (in vivo [5]; female, mouse, 30 mg/kg, Cmax): 120000 ng/mL
AUC(0-t) (in vivo [5]; male, BALB/c, mouse, 2.3 mg/kg, AUC0-24): 73.3 µg·h/mL
Cmax (in vivo [5]; male, BALB/c, mouse, 2.3 mg/kg, Cmax): 20000 ng/mL
AUC(0-t) (in vivo [5]; male, BALB/c, mouse, 7.6 mg/kg, AUC0-24): 170 µg·h/mL
Cmax (in vivo [5]; male, BALB/c, mouse, 7.6 mg/kg, Cmax): 53800 ng/mL
AUC(0-t) (in vivo [5]; male, BALB/c, mouse, 34.3 mg/kg, AUC0-24): 798 µg·h/mL
Cmax (in vivo [5]; male, BALB/c, mouse, 34.3 mg/kg, Cmax): 191000 ng/mL
increase of exposure (AUCinf-obs) [6]: 84 fold
increase of maximum plasma concentration (Cmax) [6]: 37 fold
HL_Lambda_z ([6]; 10 mg/kg): 7.0 ± 0.9 h
HL_Lambda_z ([6]; 20 mg/kg): 7.2 ± 2.3 h
solubility (physchem; oil or lipid, absolute solubility of ST-246 in oils): < 5000 µg/mL
solubility (physchem; pH 6.8, aqueous buffer, ST-246 Solubility): < 100 µg/mL
solubility (physchem; simulated gastric fluid, ST-246 Solubility): < 100 µg/mL
solubility (physchem; water, ST-246 Solubility): < 100 µg/mL
